Legend:
[1] = Miscibility and hydrogel formation of IKVAV PA / FGF2 PA binary systems (cryo-TEM, rheology); format: physicochemical; conditions: particularly at molar ratio 90:10
Method: For in vitro experiments: After lyophilization, PA powder was reconstituted in 150 mM NaCl and 3 mM KCl solution and adjusted to a pH of 7.4 using 1 μL additions of 1 M NaOH to ensure cell compatibility and material consistency. Different bioactive PAs were mixed at different mol % (see Table 3) and horn sonicated at 10% intensity, three times for 10 seconds. PA solutions were annealed at 80° C. for 30 min and then slowly cooled at 1° C. per minute to reach a final temperature of 27° C. using a thermocycler (Eppendorf PCR Thermocycler) for even and controlled heating and cooling of all samples. To prepare a PA coated substrate, 24-, 12-, or 6-well polystyrene cell culture plate or 12 mm and 18 mm glass coverslips (German Glass, Chemglass Life Science) were coated with poly-D-lysine (0.01 mg/mL, Sigma-Aldrich) for 3 h at 37° C. The plates were then rinsed with MilliQ water three times and allowed to dry for 4 h. PAs were painted on the coverslips or tissue culture plates by dragging a pipette (8-30 μL of annealed PAs (1 wt %)) to extrude a thin, even coating of material across the surface. PA coatings were incubated for 3 h at room temperature. The plates were gently rinsed with media before further use. For dye-labeled PAs experiments, Cy3-labeled-FGF2 PAs were co-assembled at 1 mol % with their corresponding non-labeled PA counterparts (see table 3).
Plunge-freezing for Cryo-TEM samples were prepared using a FEI model Vitrobot MarkIV (FEI). 7 μL of the sample solution ([PA]=0.05-0.1 wt % in H2O) was deposited on a plasma-cleaned TEM grid (300 mesh copper with lacey carbon, Electron Microscopy Sciences) and held in place with tweezers mounted on the Vitrobot. The specimen was blotted in an environment with 100% humidity at room temperature (blot force: 3, blot total: 1-2, wait time: 0.5-1 s, blot time: 3 s, drain time: 0-1 s), and plunged into a liquid ethane reservoir cooled by liquid nitrogen. The vitrified samples were stored in liquid nitrogen and then transferred to a Gatan 626 Cryo-TEM holder. Cryo-TEM images were obtained using a JEOL1230 electron microscope operating with a LaB6 filament at an accelerating voltage of 100 kV, equipped with a Gatan 831 CCD camera.
PA materials were prepared using the method described above for in vitro studies. An MCR302 Rheometer (Anton Paar) was used for all rheological studies. The instrument stage was set to 37° C. to simulate in vitro and in vivo conditions. The PA solution (150 μL) was placed on the sample stage and 30 μL of 25 mM CaCl2) solution was pipetted onto the underside of a 25 mm cone plate positioned above the material. […] The storage and loss modulus (G′ and G″) were recorded after a plateau occurred.

β1-INTEGRIN (ITGB1) = biological target: T1, β1-INTEGRIN (ITGB1) (Homo sapiens, UniProt P05556); assay: ITGB1 activation and intracellular signaling in hNPCs treated with IKVAV PAs (confocal microscopy, WB); format: cell-based; conditions: for activation of ITGB1 and downstream pathway (ILK, p-FAK/FAK) with Ca2+ added: PA mixed with 5 mM CaCl2; for active ITGB1 and downstream effectors ILK and p-FAK: relative to other IKVAV PAs, IKVAV peptide, laminin or ornithine
T1 construct: endogenous in cells; host or cells: hNPCs differentiated from human embryonic stem cells HUES 64
From the text: Neural progenitor cells (NPCs) were differentiated from human embryonic stem cells HUES 64 (Harvard University) (see FIG. 2C). In short, 70% confluent stem cell cultures grown in Matrigel (Thermo Fisher) coated plates with mTESR medium (STEMCELL Technologies), were switched to N2B27 medium (50% DMEM: F12, 50% Neurobasal, supplemented with NEAA, Glutamax, N2 and B27; Gibco) containing dual SMAD inhibitors (SB431542, DNSK International and LDN-193189, Tocris) for 12 days to induce the generation of neural progenitors. Neuralization was enhanced by supplementing medium with laminin from day 5 to 12. Next, neural rosettes were dissociated with neural rosette selection reagent (STEMCELL Technologies) to obtain NPCs, which are expanded in N2B27 (Gibco) medium supplemented with bFGF (Millipore). For experimentation in the different PA platforms, NPCs were dissociated with Accutase (Innovative Cell technology), and cultured in the distinct platforms with DMEM: F12+N2+B27 medium with hyclone penicillin-streptomycin (GE Healthcare) and ascorbic acid (0.2 μg/mL; Sigma-Aldrich).
For IKVAV PA treatments, hNPCs were cultured on ornithine coatings (German Glass, Chemglass Life Science) in 6 well and 24 well plates at a density of 500,000 cells/well and 80,000 cells/well respectively. hNPCs were treated with […] of IKVAV PAs ([PA]=6 mM, [KCl]=3 mM, [NaCl]=150 mM) or recombinant laminin protein (10 mg/mL) in solution. IKVAV PA2 and IKVAV PA5 were also mixed with 5 mM CaCl2) at a ratio PA:CaCl2) 6:1 to treat hNPCs. For 2D experiments, hNPCs were cultured on the different IKVAV PAs or laminin coatings in 6 well and 24 well plates at densities mentioned above. For co-assembled experiments, hNPCs were cultured on the different co-assembled PA coatings in 6 well and 24 well plates at a density of 400,000 cells/well and 50,000 cells/well respectively.
hNPCs were fed 4 times a week with DMEM: F12+N2^+B27 medium with hyclone penicillin-streptomycin and ascorbic acid. After 24 h, 72 h 1- or 2-weeks in vitro, cell lysates were harvested or fixed for WB or ICC, respectively. Three replicates per condition and at least three independent experiments were carried out for all conditions investigated.
For immunofluorescence, fixed primary cultures or free-floating tissue sections (40 m Thick) were incubated in blocking buffer containing 0.02% Triton-X (Sigma-Aldrich), 1% NHS (Gibco) and PBS 1× (Gibco). Samples were incubated with primary antibodies over night at 4° C. Alexa-488, Alexa-555 and/or Alexa-647 (1:500, Thermofisher) were used as secondary antibodies. DAPI (1:500, Thermofisher) was used to stain nuclei. Finally, the samples were mounted on coverslips with Immu-Mount (Fisher Scientific) solution for imaging.
RIPA buffer (Thermofisher) with a cocktail of Halt Protease and Phosphatase Inhibitors (Thermofisher) was used to extract protein from in vitro and in vivo samples. For in vivo studies, spinal cord tissue was then sonicated using a horn sonicator (Branson) to break up the tissue. A Pierce™ BCA Protein Assay Kit (Thermofisher) was used to determine protein content for all samples used. Protein extracts obtained from cell cultures or tissue were separated using an SDS-polyacrylamide gel and electro-transferred to a nitrocellulose membrane (Bio-Rad). Membranes were blocked for 30 minutes to 1 hour using a 5% milk solution (Bio-Rad) and incubated over night with primary antibodies. Corresponding secondary HRP-conjugated antibodies (1:1000, ThermoFisher) were used for 1 h at room temperature. Radiance Bioluminescent ECL substrate (Azure Biosystems) was used to detect protein signal. The membranes were imaged using the Azure Biosystems imager and densitometry analysis were performed using ImageJ software.

T1 sequence (P05556 21-798): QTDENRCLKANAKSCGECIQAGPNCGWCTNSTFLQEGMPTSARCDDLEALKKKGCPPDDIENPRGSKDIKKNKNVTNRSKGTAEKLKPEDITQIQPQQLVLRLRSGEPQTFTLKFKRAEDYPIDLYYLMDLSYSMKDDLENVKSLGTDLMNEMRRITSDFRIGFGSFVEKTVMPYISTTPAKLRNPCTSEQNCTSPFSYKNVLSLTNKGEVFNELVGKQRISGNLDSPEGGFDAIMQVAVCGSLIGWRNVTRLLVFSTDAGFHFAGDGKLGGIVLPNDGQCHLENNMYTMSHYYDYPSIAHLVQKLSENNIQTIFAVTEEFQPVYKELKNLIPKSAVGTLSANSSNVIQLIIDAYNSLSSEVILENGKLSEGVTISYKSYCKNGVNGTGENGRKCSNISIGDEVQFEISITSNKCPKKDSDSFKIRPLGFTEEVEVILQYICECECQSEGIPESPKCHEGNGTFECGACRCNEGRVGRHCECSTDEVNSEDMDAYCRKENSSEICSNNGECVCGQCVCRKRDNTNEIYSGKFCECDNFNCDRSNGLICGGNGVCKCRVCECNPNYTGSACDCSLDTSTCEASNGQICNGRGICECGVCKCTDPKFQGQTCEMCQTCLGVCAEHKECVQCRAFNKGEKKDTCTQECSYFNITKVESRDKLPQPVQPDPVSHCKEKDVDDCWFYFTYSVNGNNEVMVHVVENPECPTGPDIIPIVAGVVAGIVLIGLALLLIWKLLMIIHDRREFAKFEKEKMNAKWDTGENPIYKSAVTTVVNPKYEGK

| miscibility and hydrogel formation when mixed with FGF2 PA1 or FGF2 PA2 [1] | activation of ITGB1 and downstream pathway (ILK, p-FAK/FAK) with Ca2+ added (β1-INTEGRIN (ITGB1)) | active ITGB1 and downstream effectors ILK and p-FAK (β1-INTEGRIN (ITGB1)) | in vitro bioactivity (summary) (β1-INTEGRIN (ITGB1)) | Substance |
| --- | --- | --- | --- | --- |
| immiscibility | decreased | substantially higher |  | C16-G4E4GIKVAV [IKVAV PA5] |
| immiscibility |  |  | low level of in vitro bioactivity | C16-V2A2E4GIKVAV [IKVAV PA1] |
| immiscibility |  | intermediate level of activation | low level of in vitro bioactivity | C16-VAG2E4GIKVAV [IKVAV PA4] |

| Substance | miscibility and hydrogel formation when mixed with FGF2 PA1 or FGF2 PA2 [1] | activation of ITGB1 and downstream pathway (ILK, p-FAK/FAK) with Ca2+ added (β1-INTEGRIN (ITGB1)) | active ITGB1 and downstream effectors ILK and p-FAK (β1-INTEGRIN (ITGB1)) | in vitro bioactivity (summary) (β1-INTEGRIN (ITGB1)) |
| --- | --- | --- | --- | --- |
| C16-A2G2E4GIKVAV [IKVAV PA2] | both miscible and could form hydrogels with similar mechanical properties | decreased | substantially higher |  |
